Assay results reported in article PMC10825133, “Repurposing proteasome inhibitors for improved treatment of triple-negative breast cancer” (Cell Death Discovery, 2024).
Like-named read-outs stand apart in the source and are kept apart here.

Experiments:
MCF-10A cells = test: Resazurin-based cell viability assay, monotherapy drug screen; parameters: species or system human; AUC: scale not given here; settings: for IC50: Homo sapiens; for AUC: area under the dose response curve, 24 h
In short: (§1)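 Cells were seeded at the highest density (tested 1000-16000 cells/well) giving linear growth between days 1 and 3, keeping them in exponential phase over the ~52 h experiment. Viability was read after 4 h at 37 °C with 0.2 mg/ml resazurin added at 10% of medium volume; ex 560/em 615 nm.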

MDA-MB-453 cells = test: as above; parameters: species or system human; AUC: scale not given here; settings: MDA-MB-453; for IC50: Homo sapiens, growth rate inhibition concentration at GR(c) = 0.5, 24 h, read-out: GR50 (the source's name); for AUC: area under the dose response curve, 24 h
In short: as §1

[1] = test system: eight TNBC cell lines and two controls (MCF-10A and MCF-7); test: Monotherapy drug screen, all investigated cell lines; type: cell-based, human; settings: for drug potency classification, below the threshold: GR50 and AUC both below the threshold; for drug potency classification: metrics GR50 < 1.0 µM and AUC < 0.80
Method: (§2) Eighteen pharmaceutical compounds were purchased from Selleckchem (Supplementary Table 2). Stock solutions were prepared using dimethyl sulfoxide (DMSO; Merck), physiological saline (sodium chloride 0.9%) or Milli-Q water, and stored at −80 °C. […] Matched concentration solvent vehicle controls were used for each drug concentration. The drug screens were performed in triplicate and repeated three (monotherapy) or two (combination therapy) times (Fig. 7).
(§3) The optimal seeding density per 96-well was determined for each cell line as previously described. The cells were seeded at a density of 4.0 × 10^3 to 7.5 × 10^3 (cell type dependent) in 96-well clear, flat-bottom microplates (Corning Life Sciences, Sigma-Aldrich) in 100 µl complete culture medium (Supplementary Table 1) and cultured for 24 h. Cell viability was determined using the resazurin assay in untreated cells at the time of plating (t = 0) and treated cells after 24 h drug treatment (Fig. 7). Percentage cell viability was calculated as 100% × (absorbance of treated cells – absorbance of background controls) / (absorbance of matched solvent vehicle controls – absorbance of background controls). The area under the curve (AUC), half-maximal inhibitory concentration (IC50), drug potency (GR50), and drug efficacy (GRmax) were determined for each compound using the GRmetrics (version 1.20.0) package in R. The monotherapy data were evaluated with the IDACombo (version 1.0.2) package in R to predict potential drug combinations (Table 1). SynergyFinder (version 3.2.10) package in R was used to identify synergistic drug combinations.
(§4) Eighteen pharmaceutical compounds were purchased from Selleckchem. […] The solubility of the compound was enhanced by pre-heating the solvent (lukewarm), if necessary. […] The stock solutions were stored at -80°C. […] Matched concentration solvent vehicle controls were used for each drug concentration. The drug screens were performed in triplicate and repeated three times for the monotherapies and twice for the combination treatments. The drug(s) and corresponding controls were plated in 96-well PCR plates (VWR) and stored at -20°C (Fig. 6). The drug plates were thawed, centrifuged (3000 rpm for 30s), and acclimatized to RT before the drugs were added to the cells. New drug plates were prepared for each drug screen.
(§5) The cells were seeded at a density of 4.0x10^3 to 7.5x10^3 (cell type-dependent) in 96-well clear, flat-bottom microplates (Corning Life Sciences, Sigma-Aldrich) in 100 µl culture medium supplemented with 10% FBS and cultured for 24h. Cell viability was determined using the resazurin assay after 24h drug treatment (Fig. 6). Percentage cell viability was calculated as 100% × (absorbance of treated cells – absorbance of background controls) / (absorbance of matched solvent vehicle controls – absorbance of background controls). Normalized growth rate inhibition (GR) was assessed using the absorbance of untreated cells after the time of plating (t = 0). […] For combination treatment, the monotherapy data were evaluated with the IDACombo (version 1.0.2)[20] package in R to predict potential drug combinations (Table 1). SynergyFinder (version 3.2.10)[21] package in R was used to identify synergistic drug combinations.

CAL-148 cells = test: Combination therapy, resazurin viability, SynergyFinder; type: cell-based, human; settings: Homo sapiens
Method: as §2, §3, §4, §5

[2] = test system: control cell lines (MCF-10A and MCF-7); test: Monotherapy drug screen, mean across the controls; type: cell-based, human; settings: for IC50: Homo sapiens, 24 h drug treatment, read-out: GR50 (mean ± SD)
Method: as §2, §3, §4, §5

[3] = target: T1, β5 catalytic site of the 20 S proteasome (Homo sapiens, UniProt P28074); test: Proteasome activity of the β5 catalytic site in MCF-7 cells (Suc-Leu-Leu-Val-Tyr-AMC substrate); type: cell-based; settings: MCF7, MCF-7 cells treated 6 h; for inhibition at 1 µM: 1000 nM; for inhibition at 10 µM: 10000 nM, read-out: inhibition of β5 activity
T1 construct: endogenous in cells; host or cells: MCF-7
Method: Proteasome activity of the β5 catalytic site was determined for the PIs using a Suc-Leu-Leu-Val-Tyr-AMC fluorescent proteasome substrate (Enzo Life Sciences, Cat. BML-P802) at a final concentration of 20 µM. MCF-7 cells were seeded at 7.5 × 10^3 cells/well in black 96-well flat-bottom microplates (Nuclon™ Delta Surface, ThermoFisher Scientific) with 100 µl culture medium supplemented with 10% FBS. After 24 h, the cells were treated for 6 h with the 11 PIs at 1, 10, 100, and 1000 nM and matched untreated controls.

[4] = 24 h drug treatment, read-out: IC50
[5] = growth rate inhibition concentration at GR(c) = 0.5, 24 h, read-out: GR50 (the source's name)

Row | Structure (SMILES) | IC50 (MCF-10A cells; [4]) | IC50 (MCF-10A cells; [5]) | AUC (MCF-10A cells) | IC50 (MDA-MB-453 cells) | AUC (MDA-MB-453 cells) | drug potency classification, below the threshold [1] | drug potency classification [1] | inhibition at 0.01 µM (CAL-148 cells; bortezomib 10 nM alone) | inhibition at 0.078 µM (CAL-148 cells; bortezomib 78 nM alone) | inhibition at 0.625 µM (CAL-148 cells; bortezomib 625 nM alone) | inhibition at 5 µM (CAL-148 cells; bortezomib 5000 nM alone) | area under the dose response curve (AUC), mean ± SD ([2]; 24 h) | IC50 [2] | inhibition at 1 µM [3] | inhibition at 10 µM [3]
1 | CC(C)C[C@H](NC(=O)[C@H](Cc1ccccc1)NC(=O)c1cnccn1)B(O)O [Bortezomib] | 46 nM | 12 nM | 0.59 | 63 nM | 0.75 | highly potent drugs | potent drugs | 12.5% | 62.8% | 55.1% | 55.6% | 0.69 ± 0.10 | 21 ± 9.7 nM | 95% | 100%
2 | CC(C)C[C@H](NC(=O)[C@@H](NC(=O)c1cccc(-c2ccccc2)n1)[C@@H](C)O)B(O)O [Delanzomib] | 18 nM | 12 nM | 0.62 | 27 nM | 0.76 | highly potent drugs | potent drugs | – | – | – | – | – | 24 ± 13 nM | 55% | 100%
